The target of experiment [1] is saMenB (Staphylococcus aureus, UniProt Q5HH38). The experiment in a line: Isothermal titration calorimetry with saMenB. In kind it is binding, S. aureus.
In experiment [2] the test system is MRSA cells. The experiment in a line: DHNA level in treated MRSA cells by LC/UV/MS. Particulars: MRSA cells treated with 8 µg/mL for 18 hr.
The test system of experiment [3] is Bacillus subtilis (ATCC 6051). The experiment is described as follows: MIC, B. subtilis.
For experiment [4], the system named is E. coli (ATCC 25922). The experiment is described as follows: MIC, E. coli. Particulars: for MIC: Escherichia coli.
The test system of experiment [5] is Klebsiella pneumoniae (ATCC 13883). The experiment in a line: MIC, K. pneumoniae. Particulars: for MIC: Klebsiella pneumoniae.
Experiment [6] relates to Pseudomonas aeruginosa (ATCC 27853). The experiment is described as follows: MIC, P. aeruginosa. Particulars: for MIC: Pseudomonas aeruginosa.
For experiment [7], the system named is MRSA cells. The experiment is described as follows: Menaquinone-8. Particulars: 1/10, 1/5, 1/3 and ½ MIC. It counts as cell-based, Staphylococcus aureus.
The subject of experiment [8] is MRSA. The experiment is described as follows: Agar MIC and colony morphology on tryptic soy agar. It counts as cell-based, Staphylococcus aureus.
Experiment [9] deals with Enterococcus faecium (ATCC 19434). The experiment is described as follows: MIC, E. faecium.
Experiment [10] has as its system Proteus mirabilis (ATCC 35659). The experiment in a line: MIC, P. mirabilis. Conditions: for MIC: Proteus mirabilis.
In experiment [11] the test system is MRSA (BAA 1762). The experiment is described as follows: MIC, broth, methicillin-resistant S. aureus. Conditions: for MIC: Staphylococcus aureus, BAA1762|MRSA; for MIC MRSA: modal value of experimental triplicates.
Experiment [12] relates to MSSA (ATCC 25923). The experiment is described as follows: MIC, broth, methicillin-sensitive S. aureus. Conditions: for MIC: Staphylococcus aureus, ATCC25923|MSSA, read-out: MIC MSSA; for MIC MSSA: modal value of experimental triplicates.
Experiment [13] deals with MRSA. The experiment in a line: Systemic MRSA infection mouse model. It counts as in vivo, Swiss Webster mice. Particulars: mice, IP infection, 100 mg/kg SC at 1, 12 and 24 hr post infection.
Experiment [14] concerns M. tuberculosis. Conditions: ref Li, X., et al. ACS Med Chem Lett, 2011; cited from earlier work.
Experiment [15] has as its system MRSA. The experiment is described as follows: Neutropenic thigh MRSA infection mouse model. In kind it is in vivo, Swiss Webster mice. Conditions: for Reduction of bacterial load in thigh: neutropenic mice, 100 mg/kg SC at 1 and 12 hr post infection.
The subject of experiment [16] is Haemophilus influenzae (ATCC 49427). The experiment is described as follows: MIC, H. influenzae. Conditions: for MIC: Haemophilus influenzae.

In brackets after ≈: the same amount, converted by molar mass. Read-outs that look alike come from different tables or passages of the source.

Usually Kd stands for a measure of binding affinity in units of concentration.

saMenB, sequence (Q5HH38 whole entry): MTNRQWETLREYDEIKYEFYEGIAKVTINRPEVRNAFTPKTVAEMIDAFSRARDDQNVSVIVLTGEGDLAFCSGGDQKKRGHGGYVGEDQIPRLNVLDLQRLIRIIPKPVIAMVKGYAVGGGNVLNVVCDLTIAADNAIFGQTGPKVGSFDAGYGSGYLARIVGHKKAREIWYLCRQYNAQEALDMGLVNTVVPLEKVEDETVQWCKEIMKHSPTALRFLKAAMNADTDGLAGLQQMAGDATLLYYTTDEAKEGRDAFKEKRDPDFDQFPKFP

As to `CC(C)(COP(=O)(O)OP(=O)(O)OC[C@H]1O[C@@H](n2cnc3c(N)ncnc32)[C@H](O)[C@@H]1OP(=O)(O)O)[C@@H](O)C(=O)NCCC(=O)NCCS` [CoA, coenzyme A], the Kd in experiment [1] was 25 ± 4 µM.
For `COC(=O)C=CC(=O)c1ccc(Cl)cc1` [Compound 1, methyl 4-(4-chlorophenyl)-4-oxobut-2-enoate], in experiment [2], the “DHNA in treated cells” value was “could not be detected”. Also, the MIC is over 60 µg/mL in [3] (ATCC6051, read-out: MIC + MK-4); 8 µg/mL (≈ 35.6 µM) in experiment [3] (ATCC6051, read-out: MIC aerobic); 2 µg/mL (≈ 8.9 µM) in experiment [3] (ATCC6051, read-out: MIC anaerobic); 4 µg/mL (≈ 17.8 µM) in experiment [3] (ATCC6051, read-out: MIC capnophilic); over 60 µg/mL in experiment [4] (ATCC25922, read-out: MIC + MK-4); over 60 µg/mL in experiment [4] (ATCC25922, read-out: MIC aerobic). Besides, the MIC was 15.5 µg/mL (≈ 69 µM) in experiment [4] (ATCC25922, read-out: MIC anaerobic); 15.5 µg/mL (≈ 69 µM) in [4] (ATCC25922, read-out: MIC capnophilic); over 60 µg/mL in experiment [5] (ATCC13883, read-out: MIC + MK-4); over 60 µg/mL in experiment [5] (ATCC13883, read-out: MIC aerobic); 62.5 µg/mL (≈ 278 µM) in experiment [5] (ATCC13883, read-out: MIC anaerobic); over 60 µg/mL in experiment [5] (ATCC13883, read-out: MIC capnophilic). Besides, the MIC in experiment [6] (ATCC27853, read-out: MIC aerobic) was over 60 µg/mL; in experiment [6] (ATCC27853, read-out: MIC anaerobic) it was over 60 µg/mL; in [6] (ATCC27853, read-out: MIC capnophilic) it was over 60 µg/mL; in experiment [9] (ATCC19434, read-out: MIC + MK-4), 31.5 µg/mL; in [9] (ATCC19434, read-out: MIC aerobic) it was 4 µg/mL (≈ 17.8 µM); in experiment [9] (ATCC19434, read-out: MIC anaerobic), 1.25 µg/mL (≈ 5.56 µM). Also, the MIC in experiment [9] (ATCC19434, read-out: MIC capnophilic) is 2.5 µg/mL (≈ 11.1 µM); in experiment [10] (ATCC35659, read-out: MIC + MK-4), 31.5 µg/mL; in experiment [10] (ATCC35659, read-out: MIC aerobic), over 60 µg/mL; in [10] (ATCC35659, read-out: MIC anaerobic), 12.5 µg/mL (≈ 55.6 µM); in experiment [10] (ATCC35659, read-out: MIC capnophilic) it was 12.5 µg/mL (≈ 55.6 µM); in [11] (read-out: MIC + MK-4), over 60 µg/mL. The MIC in experiment [11] (read-out: MIC MRSA) was 0.75 µg/mL (≈ 3.34 µM); in experiment [11] (read-out: MIC aerobic), 0.75 µg/mL (≈ 3.34 µM); in experiment [11] (read-out: MIC anaerobic), 0.37 µg/mL (≈ 1.65 µM); in experiment [11] (read-out: MIC capnophilic), 0.37 µg/mL (≈ 1.65 µM); in experiment [12], 0.35 µg/mL (≈ 1.56 µM); in experiment [16] (ATCC49427, read-out: MIC + MK-4), over 60 µg/mL. The MIC in [16] (ATCC49427, read-out: MIC capnophilic) was 0.25 µg/mL (≈ 1.11 µM). The MIC aerobic entry in [4] (E. coli, aerobic) is “no activity”; in experiment [5] (K. pneumoniae, aerobic) it was “no activity”; in experiment [6] (P. aeruginosa, aerobic) it was “no activity”; in experiment [10] (P. mirabilis, aerobic) it was “no activity”; in experiment [14], 0.64 µg/mL (≈ 2.85 µM). Also, the MIC anaerobic in experiment [5] (K. pneumoniae, anaerobic (GasPak)) was 62.5 µg/mL (≈ 278 µM); in experiment [6] (P. aeruginosa, anaerobic (GasPak)) it was “no activity”. In addition, the MIC capnophilic entry is “no activity” in experiment [6] (P. aeruginosa, capnophilic (candle jar)) and 0.25 µg/mL (≈ 1.11 µM) in experiment [16] (H. influenzae, capnophilic (candle jar)). In addition, the “Change in MK-8 with increasing concentration” value in experiment [7] is “dose dependent decrease”. Also, the Colony morphology result in experiment [8] (MRSA on TSA with 4 µg/mL (½ agar MIC), 48 hr) is listed as “SCV phenotype”. Moreover, in [8] (MRSA on TSA with 16 µg/mL (2x agar-MIC) and 10 µM MK-4), the “Growth with MK-4 complementation” value was “wild-type growth”. The “Agar MIC” value in [8] (MRSA on tryptic soy agar, no growth after 72 hr) is on record as 8 µg/mL. Further, in experiment [13], the “Survival rate (days post infection)” value is 4.6 days. Also, the “Reduction of bacterial load in thigh” value in [15] is reported as 3.1 log CFU/gram tissue. The “Dose dependence of bacterial burden in thigh” value in experiment [15] (neutropenic mice, 25, 50 and 100 mg/kg SC) is “dose dependent reduction”.
Regarding `COC(=O)C=CC(=O)c1ccc(F)cc1` [Compound 2], in experiment [11], the “MIC MRSA” value came to 12 µg/mL (≈ 57.6 µM). Moreover, in experiment [12], the “MIC MSSA” value was found to be 8 µg/mL (≈ 38.4 µM).
The corresponding values for `COC(=O)C=CC(=O)c1ccc(Br)cc1` [Compound 3] are 16 µg/mL (≈ 59.5 µM) and 8 µg/mL (≈ 29.7 µM).
With `COC(=O)C=CC(=O)c1ccc([N+](=O)[O-])cc1` [Compound 4], the “MIC MRSA” value in experiment [11] was determined as 4 µg/mL (≈ 17 µM). Besides, in experiment [12], the “MIC MSSA” value was 4 µg/mL (≈ 17 µM).
As to `COC(=O)C=CC(=O)c1ccc(Cl)cc1Cl` [Compound 5], the “MIC MRSA” value in experiment [11] is recorded as 2 µg/mL (≈ 7.72 µM). The “MIC MSSA” value in experiment [12] stood at 1 µg/mL (≈ 3.86 µM).
Turning to `O=C(O)C=CC(=O)c1ccc(Cl)cc1` [Compound 6], the “MIC MRSA” value in experiment [11] is given as over 60 µg/mL. In experiment [12], the “MIC MSSA” value was over 60 µg/mL.
For `Cc1onc(-c2ccccc2)c1C(=O)N[C@@H]1C(=O)N2[C@@H]1SC(C)(C)[C@@H]2C(=O)O` [Oxacillin, reference compound], the MIC in [11] (read-out: MIC MRSA) is over 128 µg/mL; in experiment [12], 0.1 µg/mL (≈ 0.249 µM). Also, the “Survival rate (days post infection)” value in experiment [13] is 1.5 to 1.6 days. Moreover, the “Reduction of bacterial load in thigh” value in experiment [15] is on record as “minimal effect”.
The corresponding values for `CN[C@H](CC(C)C)C(=O)N[C@H]1C(=O)N[C@@H](CC(N)=O)C(=O)N[C@H]2C(=O)N[C@H]3C(=O)N[C@H](C(=O)N[C@H](C(=O)O)c4cc(O)cc(O)c4-c4cc3ccc4O)[C@H](O)c3ccc(c(Cl)c3)Oc3cc2cc(c3O[C@@H]2O[C@H](CO)[C@@H](O)[C@H](O)[C@H]2O[C@H]2C[C@](C)(N)[C@H](O)[C@H](C)O2)Oc2ccc(cc2Cl)[C@H]1O` [Vancomycin, reference compound] are 4 µg/mL (≈ 2.76 µM), 2 µg/mL (≈ 1.38 µM), 5.8 days and 4.2 log CFU/gram tissue.

The values above are taken from article PMC4898059 (ACS infectious diseases, 2016).
